Measurements as given in PubChem BioAssay (NCI).
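Protocol summary: plate cells (96-well), add compound at 5 concentrations, incubate 48 h, interpolate endpoints linearly. GI50 is the concentration that inhibits growth by half. The concentration for full growth arrest is given as TGI.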

Key:
Test in all cases: DTP human tumour cell line panel, 48 h
[1] = tested on: DU-145 prostate
[2] = tested on: T-47D breast
[3] = tested on: SW-620 colon
[4] = tested on: KM12 colon
[5] = tested on: ACHN renal
[6] = tested on: SK-MEL-5 melanoma
[7] = tested on: U251 CNS
[8] = tested on: HL-60(TB) leukemia
[9] = tested on: HOP-62 NSCLC
[10] = tested on: OVCAR-4 ovarian

SMILES | GI50 [1] [µM] | TGI [1] [µM] | GI50 [2] [µM] | TGI [2] [µM] | GI50 [3] [µM] | TGI [3] [µM] | GI50 [4] [µM] | TGI [4] [µM] | GI50 [5] [µM] | TGI [5] [µM] | GI50 [6] [µM] | TGI [6] [µM] | GI50 [7] [µM] | TGI [7] [µM] | GI50 [8] [µM] | TGI [8] [µM] | GI50 [9] [µM] | TGI [9] [µM] | GI50 [10] [µM] | TGI [10] [µM]
COc1cc2c(cc1NC(=O)C(Cl)Cl)-c1ccc(NC(=O)C(Cl)Cl)cc1C2 | 0.265 | 0.804 | 0.707 | 8.6 | 0.264 | 0.935 | 0.336 | 1.17 | 0.268 | 0.971 | 4.35 | 18.3 | 0.245 | 0.708 | 0.568 | 3.37 | 0.587 | 1.64 | 1.04 | 5.56
O=c1[nH]c(=S)[nH]c(-c2ccccc2)c1Cc1c(O)ccc2ccccc12 | – | > 100 | – | 58 | – | > 100 | – | > 100 | – | > 100 | – | 43.8 | – | > 100 | – | 50.5 | – | > 100 | – | > 100
O=C(c1ccco1)c1c(C(F)(F)F)n([O-])c2cc(F)c(F)cc2[n+]1=O | 0.238 | 0.727 | 0.782 | 22.7 | – | 0.0132 | 0.7 | 2 | 0.122 | 0.256 | 0.256 | 1.23 | 0.153 | 0.291 | 0.4 | 2.74 | 0.348 | 0.85 | – | –
N#Cc1cc2c(cc1Cl)Sc1nnc(Nc3cccc4ccccc34)n1S2(=O)=O | 3.66 | 12.9 | 1.25 | 3.67 | 3.61 | 12.3 | 2.99 | 10.1 | 6.34 | 19.2 | 3.95 | 15.7 | 3.23 | 10.7 | 2.75 | 20.2 | 15.6 | 29.6 | 6.48 | 26.8
CCOC(=O)C(CCCNC(=O)OC(C)(C)C)N(Cc1ccc(OC)cc1OC)C(=O)CC(=O)CP(=O)(OCC)OCC (stereo unspecified) | – | – | – | – | – | – | – | > 100 | – | > 100 | – | > 100 | – | > 100 | – | > 100 | – | > 100 | – | > 100
O=S(=O)(NCCCNc1nccc(-c2c(-c3ccc(F)cc3)nc3sccn23)n1)c1ccc(F)cc1 | 10.8 | > 100 | 2.28 | 13.2 | 33.2 | > 100 | – | – | 4.61 | > 100 | 4.63 | 57.9 | 8.87 | > 100 | 8.38 | > 100 | 24.8 | > 100 | 3.53 | 26.7
C[P+]1(c2ccccc2)CCCCC1 | – | – | – | – | – | > 100 | – | > 100 | – | > 100 | – | > 100 | – | > 100 | – | – | – | > 100 | – | > 100
CCc1ccccc1NC(=O)CC1NC(=O)CS1 (stereo unspecified) | – | – | – | – | – | > 100 | – | > 100 | – | – | – | > 100 | – | > 100 | – | > 100 | – | > 100 | – | > 100
Cc1ccc(NC(=O)/C(C#N)=C/c2ccccc2)c(C)c1 | – | – | – | – | – | > 100 | – | > 100 | – | > 100 | – | > 100 | – | > 100 | – | > 100 | – | > 100 | – | > 100
N#CNC1=NC(N)C(c2nc3ccccc3[nH]2)=C(CCCC(=O)Nc2cccc([N+](=O)[O-])c2)N1 (stereo unspecified) | – | – | – | – | – | > 100 | – | > 100 | – | > 100 | – | > 100 | – | – | – | > 100 | – | > 100 | – | > 100
O=[N+]([O-])/C=C/c1ccc(Cl)cc1Cl | – | – | – | – | – | 37.5 | – | 29.6 | – | 34.3 | – | 29.4 | – | 20.5 | – | 25.3 | – | 28.6 | – | 34.8
CC(=O)Nc1ccc(S(=O)(=O)NN(C)S(=O)(=O)c2ccc(C)cc2)cc1 | – | – | – | – | – | > 100 | – | > 100 | – | > 100 | – | > 100 | – | – | – | > 100 | – | > 100 | – | > 100
N#CC1C(N)=NNC12Nc1ccccc1S2 (stereo unspecified) | 15.6 | 55.3 | 4.04 | 50.3 | 31.2 | > 100 | 18.9 | 91.6 | 20.1 | 53.3 | 8.93 | 28.7 | 5.84 | 20.3 | 42.5 | > 100 | 30.3 | > 100 | – | –
O=C1C(Sc2ccc3ccccc3c2)=C(Sc2ccc3ccccc3c2)C(=O)c2ccccc21 | – | 84.4 | – | 4.62 | – | 16.5 | – | – | – | 17.3 | – | 12.4 | – | 19.1 | – | 11.2 | – | 27.8 | – | 15.2
C=CC(=O)N[C@@H](/C=C/C(=O)OCC)Cc1ccc(-c2cc(Cl)cc(Cl)c2)cc1 | 12.9 | 64.2 | 3.35 | 28 | 17 | 83.2 | 16.6 | 93.7 | 16.1 | > 100 | 4.46 | 17.5 | 17.2 | > 100 | 8.22 | 60 | – | – | 5.23 | 74.4
Cn1nc(-c2ccccc2)c(C(=O)/C=C/c2ccc(Cl)cc2)c(N2CCOCC2)c1=O | – | – | – | – | – | 21.5 | – | – | – | 17 | – | 17.2 | – | 12.8 | – | 4.38 | – | 33.7 | – | –
CC1CCC2C(CN(CC3=C(C(F)(F)F)OC4OC5(C)CCC6C(C)CCC3C46OO5)CC3=C(C(F)(F)F)OC4OC5(C)CCC6C(C)CCC3C46OO5)=C(C(F)(F)F)OC3OC4(C)CCC1C32OO4 (stereo unspecified) | – | – | 3.97 | 27.2 | – | – | 3.72 | 10.1 | 1.81 | 3.49 | – | – | 5.12 | 19.2 | 3.12 | 10.7 | 28.3 | 71.9 | 10.2 | 33.4
CC(N)CC(=O)O (stereo unspecified) | – | – | – | – | – | > 5000 | – | > 5000 | – | > 5000 | – | > 5000 | – | > 5000 | – | > 5000 | – | – | – | > 5000
COc1ccc(-c2c3c(N)c4c(nc3nc3c2c(C)nn3-c2ccccc2)CCCC4)cc1 | 4.72 | 16.4 | – | – | 3.05 | 11.8 | 3.16 | 10.8 | 4.32 | 15.1 | 1.84 | 3.85 | 1.72 | 3.56 | 2.12 | 4.3 | 14.1 | 29.3 | 3.22 | 16.4
